The text below walks through data of US9790219B2, “Compounds, compositions, and methods for increasing CFTR activity” (Proteostasis Therapeutics, Inc., priority 2014, dated 2017).

T1 sequence (P13569 with tags, fused parts or gaps DEL508-508): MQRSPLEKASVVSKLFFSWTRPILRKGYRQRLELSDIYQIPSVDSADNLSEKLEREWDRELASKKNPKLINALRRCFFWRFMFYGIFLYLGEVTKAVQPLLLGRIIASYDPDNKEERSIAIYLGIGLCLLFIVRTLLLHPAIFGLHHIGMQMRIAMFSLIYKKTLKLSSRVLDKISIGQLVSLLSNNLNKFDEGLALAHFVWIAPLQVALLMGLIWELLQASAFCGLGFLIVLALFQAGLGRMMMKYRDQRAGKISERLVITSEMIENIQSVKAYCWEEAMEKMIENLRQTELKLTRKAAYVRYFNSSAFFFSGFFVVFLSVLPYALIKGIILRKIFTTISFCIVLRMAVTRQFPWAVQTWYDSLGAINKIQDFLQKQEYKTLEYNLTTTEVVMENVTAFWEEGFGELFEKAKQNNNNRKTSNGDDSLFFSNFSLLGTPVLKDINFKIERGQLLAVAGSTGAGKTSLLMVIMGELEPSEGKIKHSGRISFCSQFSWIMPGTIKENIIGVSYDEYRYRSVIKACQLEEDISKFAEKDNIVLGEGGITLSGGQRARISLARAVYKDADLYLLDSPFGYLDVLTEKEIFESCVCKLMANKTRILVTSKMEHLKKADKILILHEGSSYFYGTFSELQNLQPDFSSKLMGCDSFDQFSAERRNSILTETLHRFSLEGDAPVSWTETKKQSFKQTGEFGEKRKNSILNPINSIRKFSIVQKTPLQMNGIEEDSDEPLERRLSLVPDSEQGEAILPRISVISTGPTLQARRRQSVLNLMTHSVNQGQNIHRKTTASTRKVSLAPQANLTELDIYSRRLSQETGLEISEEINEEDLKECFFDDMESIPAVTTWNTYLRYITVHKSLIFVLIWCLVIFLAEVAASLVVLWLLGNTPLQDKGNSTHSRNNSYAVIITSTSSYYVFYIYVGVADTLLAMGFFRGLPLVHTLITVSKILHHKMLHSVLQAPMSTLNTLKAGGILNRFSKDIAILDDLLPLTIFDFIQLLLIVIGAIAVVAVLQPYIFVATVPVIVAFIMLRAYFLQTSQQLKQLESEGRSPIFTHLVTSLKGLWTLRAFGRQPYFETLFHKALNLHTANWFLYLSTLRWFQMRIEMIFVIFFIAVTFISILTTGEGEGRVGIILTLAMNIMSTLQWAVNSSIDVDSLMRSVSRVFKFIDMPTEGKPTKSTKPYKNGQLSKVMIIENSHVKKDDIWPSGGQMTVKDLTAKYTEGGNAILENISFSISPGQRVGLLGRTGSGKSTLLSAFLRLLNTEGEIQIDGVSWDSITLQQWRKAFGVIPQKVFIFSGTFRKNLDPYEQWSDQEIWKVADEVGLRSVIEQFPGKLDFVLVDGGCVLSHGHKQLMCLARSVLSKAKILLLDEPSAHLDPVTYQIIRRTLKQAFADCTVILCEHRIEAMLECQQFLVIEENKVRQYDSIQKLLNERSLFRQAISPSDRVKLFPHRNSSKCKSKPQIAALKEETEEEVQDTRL

The experiment has as its target T1, ΔF508-CFTR (Homo sapiens, UniProt P13569, DEL508-508).
T1 construct: Primary lung epithelial cells homozygous for the Cystic Fibrosis-causing ΔF508 mutation; endogenous in cells; host or cells: primary human lung (bronchial) epithelial cells homozygous for ΔF508, differentiated at air-liquid interface
Briefly: hBE equivalent current (Ieq) assay. It counts as cell-based. The conditions noted are these: compound at 10 uM together with VX-809 at 1 uM, relative to VX-809 (1 uM); AUC of equivalent chloride current; primary hBE homozygous ΔF508; 24 h treatment. How it is done: Primary lung epithelial cells homozygous for the Cystic Fibrosis-causing ΔF508 mutation were differentiated for a minimum of 4 weeks in an air-liquid interface on Costar 24 well HTS filter plates prior to the equivalent current (Ieq) measurements. Cells were apically mucus-washed for 30 minutes 24 h prior to treatment with compounds. The basolateral media was removed and replaced with media containing the compound of interest diluted to its final concentration from DMSO stocks. Treated cells were incubated at 37° C. and 5% CO2 for 24 hours. At the end of the treatment period, the media was changed to the Ieq experimental solution for 30 minutes before the experiment and plates are maintained in a CO2-free incubator during this period. The plates containing the cells were then placed in pre-warmed heating blocks at 36° C.±0.5 for 15 minutes before measurements are taken. The transepithelial voltage (VT) and conductance (GT) were measured using a custom 24 channel current clamp (TECC-24) with 24 well electrode manifold. The Ieq assay measurements were made following additions with standardized time periods: • 1. The baseline VT and GT values were measured for approximately 20 minutes. • 2. Benzamil was added to block ENaC for 15 minutes. • 3. Forskolin plus VX-770 were added to maximally activate ΔF508-CFTR for 27 minutes. • 4. Bumetanide was added to inhibit the NaK2Cl cotransporter and shut-off secretion of chloride.
The activity data captured was the area under the curve (AUC) for the traces of the equivalent chloride current. The AUC was collected from the time of the forskolin/VX-770 addition until the inhibition by bumetanide addition. Correction in response to compound treatment was scored as the increase in the AUC for compound-treated samples over that of vehicle-treated samples. The results are shown below in Table 2 (++indicates activity ≧25% run at 10 uM of VX-809 at 1 uM; +indicates activity 10 to <25% run at 10 uM of VX-809 at 1 uM; ** indicates activity ≧200% of VX-809 (1 uM) with compound at 10 uM and VX-809 at 1 uM; * indicates activity 100-200% of VX-809 (1 uM) with compound at 10 uM and VX-809 at 1 uM)
On to `O=C(NCCc1nnc(COC(F)(F)F)o1)c1cc(-c2ccccc2)on1` [Compound A15, 5-phenyl-N-(2-(5-((trifluoromethoxy)methyl)-1,3,4-oxadiazol-2-yl)ethyl)isoxazole-3-carboxamide], for which the “Ieq Activity” value was “* (* indicates activity 100-200% of VX-809 (1 uM) with compound at 10 uM and VX-809 at 1 uM)”. With `CO[C@@H](C)c1nnc(CCNC(=O)c2cc(-c3ccccc3)on2)s1` [Compound A25-a, (S)-N-(2-(5-(1-methoxyethyl)-1,3,4-thiadiazol-2-yl)ethyl)-5-phenylisoxazole-3-carboxamide] the entry was “** (** indicates activity ≧200% of VX-809 (1 uM) with compound at 10 uM and VX-809 at 1 uM)”; with `[N-]=[N+]=NCc1nnc(CCNC(=O)c2cc(-c3ccccc3)on2)s1` [Compound A7, N-(2-(5-(azidomethyl)-1,3,4-thiadiazol-2-yl)ethyl)-5-phenylisoxazole-3-carboxamide], “** (** indicates activity ≧200% of VX-809 (1 uM) with compound at 10 uM and VX-809 at 1 uM)”; with `C[C@@H](O)c1nnc(CCNC(=O)c2cc(-c3ccccc3)on2)o1` [Compound A14, (R)-N-(2-(5-(1-hydroxyethyl)-1,3,4-oxadiazol-2-yl)ethyl)-5-phenylisoxazole-3-carboxamide], “* (* indicates activity 100-200% of VX-809 (1 uM) with compound at 10 uM and VX-809 at 1 uM)”.

For the compound `COC(C)c1nnc(CCNC(=O)c2cc(-c3ccccc3)on2)o1` (stereo in doubt) [Compound A24-b, (S)-N-(2-(5-(1-methoxyethyl)-1,3,4-oxadiazol-2-yl)ethyl)-5-phenylisoxazole-3-carboxamide], the “Ieq Activity” value is “* (* indicates activity 100-200% of VX-809 (1 uM) with compound at 10 uM and VX-809 at 1 uM)”. Turning to `Cc1nnc(CCCNC(=O)c2cc(-c3ccccc3)on2)s1` [Compound A6, N-(3-(5-methyl-1,3,4-thiadiazol-2-yl)propyl)-5-phenylisoxazole-3-carboxamide], the “Ieq Activity” value is “** (** indicates activity ≧200% of VX-809 (1 uM) with compound at 10 uM and VX-809 at 1 uM)”. Consider `COCc1nnc(CCNC(=O)c2cc(-c3ccccc3)on2)s1` [Compound A4, N-(2-(5-(methoxymethyl)-1,3,4-thiadiazol-2-yl)ethyl)-5-phenylisoxazole-3-carboxamide], for which the “Ieq Activity” value was “** (** indicates activity ≧200% of VX-809 (1 uM) with compound at 10 uM and VX-809 at 1 uM)”.

Turning to `COCc1nnc(CCNC(=O)c2cc(-c3ccccc3)on2)o1` [Compound A5, N-(2-(5-(methoxymethyl)-1,3,4-oxadiazol-2-yl)ethyl)-5-phenylisoxazole-3-carboxamide], the “Ieq Activity” value is “** (** indicates activity ≧200% of VX-809 (1 uM) with compound at 10 uM and VX-809 at 1 uM)”. In the case of `CC(C)c1nnc(CCNC(=O)c2cc(-c3ccccc3)on2)o1` [Compound A8, N-(2-(5-isopropyl-1,3,4-oxadiazol-2-yl)ethyl)-5-phenylisoxazole-3-carboxamide], the “Ieq Activity” value is “** (** indicates activity ≧200% of VX-809 (1 uM) with compound at 10 uM and VX-809 at 1 uM)”. In the case of `O=C(NCCc1nnc(C(O)C(F)(F)F)s1)c1cc(-c2ccccc2)on1` (stereo not drawn) [Compound A23, 5-phenyl-N-(2-(5-(2,2,2-trifluoro-1-hydroxyethyl)-1,3,4-thiadiazol-2-yl)ethyl)isoxazole-3-carboxamide], the “Ieq Activity” value is “** (** indicates activity ≧200% of VX-809 (1 uM) with compound at 10 uM and VX-809 at 1 uM)”.

Consider `COC(C)c1nnc(CCNC(=O)c2cc(-c3ccccc3)on2)o1` (stereo in doubt) [Compound A24-a, (R)-N-(2-(5-(1-methoxyethyl)-1,3,4-oxadiazol-2-yl)ethyl)-5-phenylisoxazole-3-carboxamide], for which the “Ieq Activity” value is “* (* indicates activity 100-200% of VX-809 (1 uM) with compound at 10 uM and VX-809 at 1 uM)”. With `O=C(NCCc1nnc(CO)s1)c1noc(-c2ccc(F)cc2)c1F` [Compound A12, 4-fluoro-5-(4-fluorophenyl)-N-(2-(5-(hydroxymethyl)-1,3,4-thiadiazol-2-yl)ethyl)isoxazole-3-carboxamide] the entry was “* (* indicates activity 100-200% of VX-809 (1 uM) with compound at 10 uM and VX-809 at 1 uM)”.
